Patent publication US20200404919A1, “USE OF HETEROARYL-TRIAZOLE AND HETEROARYL-TETRAZOLE COMPOUNDS AS PESTICIDES IN PLANT PROTECTION” (Bayer Aktiengesellschaft, priority 2018, published 2020)

Tests used:
Type in all cases: in vivo
[1] = test system: Aphis gossypii; assay: Aphis gossypii - oral test; details: 120 h, read-out: mortality in %
Protocol: Solvent: 100 parts by weight acetone
(§1) To produce a suitable preparation of active compound, 1 part by weight of active compound is mixed with the stated amount of solvent, and the concentrate is diluted with water to the desired concentration.
50 μl compound solution is filled in microtiter plates and 150 μl IPL41 insect medium (33%+15% sugar) is added to obtain a total volume of 200 μl per well. Afterwards the plates are sealed with parafilm through which a mixed population of the cotton aphid (Aphis gossypii) can suck on the compound preparation.
(§2) After 5 days mortality in % is determined. 100% means all aphids have been killed and 0% means none of the aphids have been killed.

[2] = test system: Nezara viridula; assay: Nezara viridula - spray test 1; details: in Hordeum vulgare, 96 h, read-out: mortality in %
Protocol: Nezara viridula—Spray Test 1
(§3) To produce a suitable preparation of active compound, 1 part by weight of active compound is mixed with the stated amount of solvent, and the concentrate is diluted with water, containing an emulsifier concentration of 1000 ppm, to the desired concentration. Further test concentrations are prepared by dilution with emulsifier containing water.
Barley plants (Hordeum vulgare) infested with larvae of the southern green stink bug (Nezara viridula) are sprayed with a test solution containing the desired concentration of the active ingredient.
After 4 days mortality in % is determined. 100% means all the stink bugs have been killed; 0% means none of the stink bugs have been killed.

[3] = test system: Phaedon cochleariae; assay: Phaedon cochleariae - spray test; details: in Brassica rapa, foliar, 168 h, read-out: mortality in %
Protocol: Phaedon cochleariae—Spray Test
as §3, with “solvents” for “solvent,”, “and” for “and the concentrate”
Chinese cabbage (Brassica pekinensis) leaf disks are sprayed with a preparation of the active ingredient of the desired concentration. Once dry, the leaf disks are infested with mustard beetle larvae (Phaedon cochleariae).
After 7 days mortality in % is determined. 100% means all beetle larvae have been killed and 0% means none of the beetle larvae have been killed.

[4] = test system: Diabrotica balteata; assay: Diabrotica balteata - spray test; details: 168 h, 160 μg/well, germinated wheat seeds, larvae, after 7 days, read-out: efficacy in %
Protocol: Diabrotica balteata—Spray Test
as §3
Soaked wheat seeds (Triticum aestivum) are placed in a multiple well plate filled with agar and some water and are incubated for 1 day to germinate (5 seeds per well). The germinated wheat seeds are sprayed with a test solution containing the desired concentration of the active ingredient. Afterwards each unit is infected with 10-20 larvae of the banded cucumber beetle (Diabrotica balteata).
After 7 days efficacy in % is determined. 100% means all the seedlings have grown up like in the untreated, uninfected control; 0% means none of the seedlings have grown.

[5] = test system: Myzus persicae; assay: Myzus persicae - oral test; details: 120 h, read-out: mortality in %
Protocol: To produce a suitable preparation of active compound, 1 part by weight of active compound is mixed with the stated amount of solvent, and the concentrate is diluted with water to the desired concentration. 50 μl compound solution is filled in microtiter plates and 150 μl IPL41 insect medium (33%+15% sugar) is added to obtain a total volume of 200 μl per well. Afterwards the plates are sealed with parafilm through which a mixed population of the green peach aphid (Myzus persicae) can suck on the compound preparation.
as §2

[6] = test system: Meloidogyne incognita; assay: Meloidogyne incognita - test; details: 336 h, salad seedlings in sand, after 14 days, read-out: nematicidal activity (percentage of gall formation)
Protocol: Meloidogyne incognita—Test
Solvent: 125.0 parts by weight of acetone
as §1
Vessels are filled with sand, a solution of the active ingredient, a suspension containing eggs and larvae of the southern root-knot nematode (Meloidogyne incognita) and salad seeds. The salad seeds germinate and the seedlings grow. Galls develop in the roots.
After 14 days the nematicidal activity is determined on the basis of the percentage of gall formation. 100% means no galls were found and 0% means the number of galls found on the roots of the treated plants was equal to that in untreated control plants.

[7] = test system: Nilaparvata lugens; assay: Nilaparvata lugens - spray test 1; details: in Oryza sativa, 96 h, read-out: mortality in %, 500 g/ha, rice plants, after 4 days
Protocol: Nilaparvata lugens—Spray Test 1
as §3, with “solvents” for “solvent,”, “and” for “and the concentrate”
Rice plants (Oryza sativa) are sprayed with a preparation of the active ingredient of the desired concentration and the plants are infested with the brown planthopper (Nilaparvata lugens).
After 4 days mortality in % is determined. 100% means all planthoppers have been killed and 0% means none of the planthoppers have been killed.

[8] = test system: Musca domestica strain WHO-N; assay: Musca domestica test (MUSCDO surface treatment & contact assay); details: 30 minutes exposure, 24 hours after contact, read-out: efficacy (mortality in percent); for mortality at 4 mg/m2: surface concentration 4 mg/m^2, glazed tile; for mortality at 20 mg/m2: surface concentration 20 mg/m^2, glazed tile
Protocol: Musca domestica Test (MUSCDO Surface Treatment & Contact Assay)
(§4) Solvent: Aceton+2000 ppm Rapeseed oil methyl ester (RME)
(§5) In order to produce a sufficient, active ingredient containing solution it is necessary to solve the test-compound in an acetone/RME solvent mixture. This solution is pipetted onto a glazed tile and after evaporation of the acetone, adult flies of the species Musca domestica strain WHO-N are placed onto the dried surface. The exposure time is 30 minutes.
(§6) Mortality in percent (%) is determined 24 hours after contact to the treated surface. 100% mortality means that all test-insects are dead, whereas 0% means that not a single insect died.

[9] = test system: Aedes aegypti strain MONHEIM; assay: Aedes test (AEDSAE surface treatment & contact assay); details: 30 minutes exposure, 24 hours after contact, read-out: efficacy (mortality in percent); for mortality at 4 mg/m2: surface concentration 4 mg/m^2, glazed tile; for mortality at 20 mg/m2: surface concentration 20 mg/m^2, glazed tile
Protocol: Aedes Test (AEDSAE Surface Treatment & Contact Assay)
Solvent: Aceton+2000 ppm rapeseed oil methyl ester (RME)
as §5, with “mosquitoes” for “flies”, “Aedes aegypti” for “Musca domestica”, “MONHEIM” for “WHO-N”
as §6

[10] = test system: Blattella germanica strain PAULINIA; assay: Blattella germanica test (BLTTGE surface treatment & contact assay); details: 30 minutes exposure, 24 hours after contact, read-out: efficacy (mortality in percent); for mortality at 4 mg/m2: surface concentration 4 mg/m^2, glazed tile; for mortality at 20 mg/m2: surface concentration 20 mg/m^2, glazed tile
Protocol: Blattella germanica Test (BLTTGE Surface Treatment & Contact Assay)
as §4
as §5, with “animals” for “flies”, “Blattella germanica” for “Musca domestica”, “PAULINIA” for “WHO-N”
as §6

[11] = test system: Spodoptera frugiperda; assay: Spodoptera frugiperda - spray test; details: in Zea mays, 168 h, read-out: mortality in %
Protocol: Spodoptera frugiperda—Spray Test
as §3, with “solvents” for “solvent,”, “and” for “and the concentrate”
Maize (Zea mays) leaf sections are sprayed with a preparation of the active ingredient of the desired concentration. Once dry, the leaf sections are infested with fall armyworm larvae (Spodoptera frugiperda).
After 7 days mortality in % is determined. 100% means all caterpillars have been killed and 0% means none of the caterpillars have been killed.

[12] = test system: Culex quinquefasciatus; assay: Culex test (CULXFAS surface treatment & contact assay); details: 30 minutes exposure, 24 hours after contact, read-out: efficacy (mortality in percent); for mortality at 4 mg/m2: surface concentration 4 mg/m^2, glazed tile; for mortality at 20 mg/m2: surface concentration 20 mg/m^2, glazed tile
Protocol: Culex Test (CULXFAS Surface Treatment & Contact Assay)
Solvent: Acetone+2000 ppm rapeseed oil methyl ester (RME)
as §5, with “mosquitoes” for “flies”, “Culex quinquefasciatus (Brown house mosquito)” for “Musca domestica strain WHO-N”
as §6

| Structure (SMILES) | mortality at 100 ppm [1] | mortality at 500 g/ha [2] | mortality at 500 g/ha [3] | pest or weed control at 160 µg/disc, 160 µg/well [4] | mortality at 20 ppm [5] | pest or weed control at 20 ppm [6] | mortality at 500 g/ha [7] | mortality at 4 mg/m2 [8] | mortality at 20 mg/m2 [8] | mortality at 4 mg/m2 [9] | mortality at 20 mg/m2 [9] | mortality at 4 mg/m2 [10] | mortality at 20 mg/m2 [10] | mortality at 500 g/ha [11] | mortality at 4 mg/m2 [12] | mortality at 20 mg/m2 [12] |
| --- | --- | --- | --- | --- | --- | --- | --- | --- | --- | --- | --- | --- | --- | --- | --- | --- |
| CC(c1ncnn1-c1ncccn1)N(CC1CC1)C(=O)c1cccc(C#N)c1 (stereo not drawn) [Compound I-38, 3-cyano-N-(cyclopropylmethyl)-N-[1-(2-pyrimidin-2-yl-1,2,4-triazol-3-yl)ethyl]benzamide] | 100% | 100% | 100% | 100% | 100% | 100% | – | – | – | – | – | – | – | – | – | – |
| CC(NC(=O)c1cc(C(F)(F)F)cc(C(F)(F)F)c1)c1ncnn1-c1ncccn1 (stereo not drawn) [Compound I-63, N-[1-(2-pyrimidin-2-yl-1,2,4-triazol-3-yl)ethyl]-3,5-bis(trifluoromethyl)benzamide] | 100% | 100% | 100% | 100% | 100% | – | 100% | 80 to 100% | 80 to 100% | 80 to 100% | 80 to 100% | 80 to 100% | 80 to 100% | 100% | 80 to 100% | 80 to 100% |
| Cc1nc(C(C)N(CC2CC2)C(=O)c2cc(Cl)cc(C(F)(F)F)c2)n(-c2ncc(F)cn2)n1 (stereo not drawn) [Compound I-77, 3-chloro-N-(cyclopropylmethyl)-N-[1-[2-(5-fluoropyrimidin-2-yl)-5-methyl-1,2,4-triazol-3-yl]ethyl]-5-(trifluoromethyl)benzamide] | 100% | 100% | 100% | 100% | 100% | – | 100% | 80 to 100% | 80 to 100% | – | 80 to 100% | – | 80 to 100% | 100% | 80 to 100% | 80 to 100% |
| CC(c1ncnn1-c1ncccn1)N(CC1CC1)C(=O)c1cncc(Br)c1 (stereo not drawn) [Compound I-79] | – | 90% | 100% | 100% | – | 100% | 100% | – | – | – | – | – | – | – | – | – |
| CC(c1ncnn1-c1ncc(Cl)cn1)N(CC1CC1)C(=O)c1cc(Cl)cc(C(F)(F)F)c1 (stereo not drawn) [Compound I-80, 3-chloro-N-[1-[2-(5-chloropyrimidin-2-yl)-1,2,4-triazol-3-yl]ethyl]-N-(cyclopropylmethyl)-5-(trifluoromethyl)benzamide] | 100% | 100% | 100% | 100% | 100% | 90% | – | – | – | – | – | – | – | 100% | – | – |
| CC(c1ncnn1-c1ncccn1)N(CC(F)F)C(=O)c1cc(Cl)cc(C(F)(F)F)c1 (stereo not drawn) [Compound I-89, 3-chloro-N-(2,2-difluoroethyl)-N-[1-(2-pyrimidin-2-yl-1,2,4-triazol-3-yl)ethyl]-5-(trifluoromethyl)benzamide] | 100% | – | 100% | 100% | 100% | 100% | – | – | – | – | – | – | – | 100% | – | – |
| CC(c1ncnn1-c1ncccn1)N(CC1CC1)C(=O)c1cccc(Cl)c1 (stereo not drawn) [Compound I-108] | – | 100% | 100% | 100% | – | 90% | 100% | – | – | – | – | – | – | – | – | – |
| CC(c1ncnn1-c1ncccn1)N(CC1CC1)C(=O)c1ccc(Cl)cc1 (stereo not drawn) [Compound I-109] | – | – | – | 100% | – | 100% | – | – | – | – | – | – | – | – | – | – |
| CC(c1ncnn1-c1ncccn1)N(CC1CC1)C(=O)c1cc(Cl)c(Cl)c(Cl)c1 (stereo not drawn) [Compound I-111] | – | – | – | – | – | 90% | – | – | – | – | – | – | – | – | – | – |
| CC(NC(=O)c1cc(Cl)cc(C#N)c1)c1ncnn1-c1ncccn1 (stereo not drawn) [Compound I-114, 3-chloro-5-cyano-N-[1-(2-pyrimidin-2-yl-1,2,4-triazol-3-yl)ethyl]benzamide] | 100% | 100% | 100% | 100% | 100% | – | 100% | 80 to 100% | 80 to 100% | 80 to 100% | 80 to 100% | 80 to 100% | 80 to 100% | 100% | 80 to 100% | 80 to 100% |
| CC(NC(=O)c1cc(Cl)cc(OC(F)(F)F)c1)c1ncnn1-c1ncccn1 (stereo not drawn) [Compound I-119, 3-chloro-N-[1-(2-pyrimidin-2-yl-1,2,4-triazol-3-yl)ethyl]-5-(trifluoromethoxy)benzamide] | 100% | 100% | 100% | 100% | 100% | – | 100% | 80 to 100% | 80 to 100% | 80 to 100% | 80 to 100% | 80 to 100% | 80 to 100% | 100% | 80 to 100% | 80 to 100% |
